# Test results: US20110009264A1, “HERBICIDAL COMBINATION” (Bayer CropScience AG, priority 2007, published 2011)
# Experiments:
# Polygonum convolvulus = assay: Post-emergence action against weeds, greenhouse, visual scoring of control; type: in vivo; conditions: 11 days after application
# Description: (§1) Seeds or rhizome pieces of monocotyledonous and dicotyledonous weeds were placed in sandy loam soil in plastic pots, covered with soil and cultivated in a greenhouse under good growth conditions. Three weeks after sowing, the test plants were treated at the 2- to 4-leaf stage. The compounds according to the invention, formulated as wettable powders or as emulsion concentrates, were sprayed onto the green parts of the plants in various dosages at a water application rate of 100 to 800 l/ha (converted).
# (§2) 0%=no control 100%=complete control
# Veronica persica = assay: as above; type: in vivo; conditions: 11 days after application
# Description: as §1, with “(converted). After the test plants had been left to stand in the greenhouse for 10 to 28 days under optimum growth conditions, the effect of the preparations was scored visually in comparison to untreated controls.” for “(converted).”
# as §2
compound,measurement,setting,value
"COc1c(Cl)ccc(Cl)c1C(=O)O [Compound B1-1, dicamba]",Polygonum convolvulus Control in %,Polygonum convolvulus; 100 g of ai/ha,40%
"Nc1nc(C2CC2)nc(C(=O)[O-])c1Cl.[K+] [Compound B6-1, aminocyclopyrachlor]",Polygonum convolvulus Control in %,Polygonum convolvulus; 25 g of ai/ha,60%
"Nc1c(Cl)c(Cl)nc(C(=O)O)c1Cl [Compound B2-4, picloram]",Polygonum convolvulus Control in %,Polygonum convolvulus; 80 g of ai/ha,20%
"Nc1c(Cl)c(F)nc(OCC(=O)O)c1Cl [Compound B2-2, fluoroxypyr]",Veronica persica Control in %,Veronica persica; 80 g of ai/ha,60%
"sodium salt of 2-iodo-N-[(4-methoxy-6-methyl-1,3,5-triazin-2-yl)carbamoyl]benzenesulfonamide [Compound A-2]",Veronica persica Control in %,"Veronica persica; 2.5 g of ai/ha, 0%=no control, 100%=complete control",0%
"O=C(O)c1nc(Cl)ccc1Cl [Compound B2-1, clopyralid]",Veronica persica Control in %,Veronica persica; 50 g of ai/ha,0%
